In assay [1] the test system is LPS-induced TNF alpha release in PBMCs. Description: TNF alpha release assay (LPS-stimulated PBMCs). Type of assay: cell-based. The settings on record: Homo sapiens, PBMC, 1 μg/mL LPS, 6 h, read-out: TNF alpha release (activity range), IC50. The protocol: Freshly isolated peripheral blood mononuclear cells (PBMCs) were seeded in 96-well cell culture plates with 200,000 cells in 100 μl cell culture medium (DMEM cell culture medium+glutamine from PAN Biotech GmbH, Aidenbach, Germany) supplemented with 10% fetal calf serum (PAA Laboratories GmbH, Pasching, Austria) per well and incubated overnight at 37° C., 5% CO2. To each well, 100 μL cell culture medium with 2× concentrated test compounds diluted from 10 mM DMSO stocks, or 100 μL DMEM with 0.4% DMSO for control wells, was added. The compounds of general formula (I) summarized in Table 6 were used in this assay. After incubation for 1 h at 37° C., 5% CO2, cells were stimulated with 1 μg/mL LPS (Lipopolysaccharides, Sigma, catalog #L4391-1 MG; 1 mg/ml stock solution), or left untreated for negative controls, and plates were incubated for 6 h at 37° C./5% CO2. The cell culture plates were centrifuged at 2000 rpm for 5 minutes, and supernatants were transferred to fresh 96-well polypropylene plates. 25 μL of supernatants were transferred into 96-well-plates of the human TNF alpha-tissue culture kit (Meso Scale Discovery, Gaithersburg, Md., USA), and manufacturer's instructions were followed for analysis of TNF alpha levels. Chemoluminescence was measured in the Mesoscale Sector Imager, and IC50 values were calculated with the software Excel Fit (IDBS, Guildford, UK) from 2-fold dilution series comprising at least 6 concentrations in duplicates.

In a further assay the target is T1, CDK7/CyclinH/MAT1 (Homo sapiens, UniProt P50613).
T1 construct: purchased Carna Biosciences
Description: LanthaScreen Eu Kinase Binding Assay, CDK7. The settings on record: tracer 236, read-out: CDK7 (activity range), Kd. The protocol: (§1) This protocol describes how the LanthaScreen Eu Kinase Binding Assay was performed to determine dissociation constants (Kd) of compounds of general formula (I) and CDK/Cyclin complexes. The principle behind this assay is based upon the binding and displacement of an Alexa Fluor 647-labeled tracer, which binds to the active site of kinases. Binding of the tracer to the kinase is detected using a Eu-labeled antibody. Simultaneous binding of both the tracer and antibody to the kinase gives rise to a FRET-signal. Binding of an inhibitor to the kinase competes for binding with the tracer, resulting in a loss of FRET.
(§2) The compounds of general formula (I) summarized in Table 1 were diluted from a 10 mM DMSO stock solution 1:10 in a total volume of 15 μL DMSO. This compound predilution was then serial diluted 1:3 over 8 steps in DMSO and briefly spun down. Each compound solution was now diluted 1:33.33 in kinase buffer (HEPES: 20 mM, pH: 8.0; MgCl2: 10 mM; DTT: 1 mM; Brij-35: 0.01%), mixed thoroughly and spun down. For every sample, 5 μL of the diluted compound were mixed with 5 μL tracer working solution (e.g. 60 nM tracer 236 in kinase buffer for CDK2/Cyclin A) and 5 μL CDK/Cyclin/Anti-GST-AB-working solution (e.g. 15 nM CDK2/Cyclin A, 1:250 dilution of Anti-GST-AB in kinase buffer) in a well of a small volume 384 well plate (Corning Incorporated, Corning, N.Y., USA; order no. 3673). The tracer concentration was adjusted to its dissociation constant (Kd) for the CDK/Cyclin, which was 30 nM for CDK2/Cyclin A, CDK7/Cyclin H and CDK9/Cyclin T1, 20 nM for CDK8/Cyclin C, and 35 nM for CDK9/Cyclin K. For negative controls, in each well 5 μL of DMSO working solution (3% DMSO diluted in kinase buffer) was mixed with 5 μL Anti-GST-AB working solution (e.g. 1:250 dilution of Anti-GST-AB in kinase buffer for CDK2/Cyclin A) and 5 μL Tracer working solution (e.g. 60 nM Tracer 236 in kinase buffer for CDK2/Cyclin A). For positive controls, in each well 5 μL of DMSO working solution (3% DMSO diluted in kinase buffer) was mixed with 5 μL CDK/Cyclin/Anti-GST-AB-working solution: (e.g. 15 nM CDK2/Cyclin A, 1:250 dilution of Anti-GST-AB in kinase buffer) and 5 μL Tracer working solution (e.g. 60 nM Tracer 236 in kinase buffer for CDK2/Cyclin A). Positive and negative controls were calculated from at least 8 different sample wells. The 384 well plates were mixed in a Teleshaker plate mixer (Beckman Coulter, Brea, Calif., USA) at 2000 rpm for 40 sec, and incubated for 1 h at room temperature before reading. The FRET signal was measured at 340 nm excitation, 665 nm and 615 nm emission (for the kinase tracer and LanthaScreen Eu-AB, respectively) with an Envision spectrophotometer (Perkin Elmer, Waltham, Mass., USA) with 50 μs delay and 300 μs integration time. Kd values were determined from the sigmoidal dose response curves with the software Quattro Workflow (Quattro GmbH, Munich, Germany).

The target of another assay is T2, CDK2/CyclinA (Homo sapiens, UniProt P24941).
T2 construct: purchased Proqinase
Briefly: LanthaScreen Eu Kinase Binding Assay, CDK2. The conditions noted are these: tracer 236, read-out: CDK2 (activity range), Kd. As for the experimental part:
as §1, §2
On the technique in general: In TR-FRET formats the signal depends on donor and acceptor labels being close together.

The next assay concerns the target T3, CDK9/Cyclin K (Homo sapiens, UniProt P50750).
T3 construct: purchased Invitrogen
Description: LanthaScreen Eu Kinase Binding Assay, CDK9/Cyclin K. The conditions noted are these: tracer 236, read-out: CDK9/Cyclin K (activity range), Kd. The protocol: as §1, §2

The text below walks through data of patent US9242937B2, “Pharmaceutically active disubstituted pyridine derivatives” (Bayer Intellectual Property GmbH, priority 2011, dated 2016).

The IC50 is the concentration that inhibits the measured activity by half.

T1 sequence (P50613 whole entry): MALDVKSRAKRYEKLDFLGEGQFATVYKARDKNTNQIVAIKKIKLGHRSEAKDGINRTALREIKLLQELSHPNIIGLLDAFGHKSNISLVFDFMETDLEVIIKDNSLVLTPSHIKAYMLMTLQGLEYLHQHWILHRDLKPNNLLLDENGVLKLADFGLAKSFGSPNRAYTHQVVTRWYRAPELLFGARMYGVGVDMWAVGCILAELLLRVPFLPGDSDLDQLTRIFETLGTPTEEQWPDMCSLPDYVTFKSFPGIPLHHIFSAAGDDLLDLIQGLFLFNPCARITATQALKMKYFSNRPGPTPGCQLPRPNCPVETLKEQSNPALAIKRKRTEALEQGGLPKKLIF
T1 sequence (P51946 whole entry partner): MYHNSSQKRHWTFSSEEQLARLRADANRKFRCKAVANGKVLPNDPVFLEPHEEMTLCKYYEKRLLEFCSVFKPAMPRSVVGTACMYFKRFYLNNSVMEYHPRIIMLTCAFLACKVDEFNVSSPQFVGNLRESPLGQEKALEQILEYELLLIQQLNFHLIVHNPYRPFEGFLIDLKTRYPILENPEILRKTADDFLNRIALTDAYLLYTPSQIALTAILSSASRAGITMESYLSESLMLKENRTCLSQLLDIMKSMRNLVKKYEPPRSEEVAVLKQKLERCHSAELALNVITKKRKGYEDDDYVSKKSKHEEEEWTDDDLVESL
T1 sequence (P51948 whole entry partner): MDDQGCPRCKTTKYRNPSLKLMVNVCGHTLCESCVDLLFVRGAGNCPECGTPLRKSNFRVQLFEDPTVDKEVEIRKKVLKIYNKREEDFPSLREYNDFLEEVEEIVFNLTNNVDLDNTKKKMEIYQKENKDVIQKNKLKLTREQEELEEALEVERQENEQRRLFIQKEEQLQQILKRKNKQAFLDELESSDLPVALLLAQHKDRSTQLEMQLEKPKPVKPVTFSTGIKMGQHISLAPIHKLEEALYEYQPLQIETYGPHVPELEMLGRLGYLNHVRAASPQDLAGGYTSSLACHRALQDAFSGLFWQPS
T3 sequence (P50750 whole entry): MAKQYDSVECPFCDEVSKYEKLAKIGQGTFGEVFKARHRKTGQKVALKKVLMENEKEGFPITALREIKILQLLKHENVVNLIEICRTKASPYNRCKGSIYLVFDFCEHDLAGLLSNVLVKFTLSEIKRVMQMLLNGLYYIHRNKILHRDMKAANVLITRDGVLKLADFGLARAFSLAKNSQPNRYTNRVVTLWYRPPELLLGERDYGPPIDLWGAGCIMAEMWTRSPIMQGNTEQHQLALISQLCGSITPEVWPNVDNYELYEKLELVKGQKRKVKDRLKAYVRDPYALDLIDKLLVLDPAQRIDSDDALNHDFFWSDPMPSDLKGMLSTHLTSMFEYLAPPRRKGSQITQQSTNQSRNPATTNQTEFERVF
T3 sequence (O75909 1-357 isoform O75909-1 partner): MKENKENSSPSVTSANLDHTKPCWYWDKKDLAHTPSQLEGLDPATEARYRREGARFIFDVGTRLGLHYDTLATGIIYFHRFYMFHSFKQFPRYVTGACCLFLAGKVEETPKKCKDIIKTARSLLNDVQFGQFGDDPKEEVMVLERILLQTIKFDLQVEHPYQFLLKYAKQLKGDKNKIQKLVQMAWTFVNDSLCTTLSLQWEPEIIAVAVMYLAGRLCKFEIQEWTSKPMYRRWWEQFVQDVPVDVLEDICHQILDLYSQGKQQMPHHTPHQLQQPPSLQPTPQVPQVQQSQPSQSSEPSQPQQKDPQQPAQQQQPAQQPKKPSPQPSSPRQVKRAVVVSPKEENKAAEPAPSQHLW

Regarding `COc1ccccc1-c1ccnc(Nc2ccccc2)c1` [Compound B1, 4-(2-Methoxyphenyl)-N-phenylpyridin-2-amine], in assay [1], the concentration for half-maximal inhibition (IC50) was greater than 10000 nM.
Consider `COc1ccccc1-c1ccnc(Nc2cccc(S(N)(=O)=O)c2)c1` [Compound D1, 3-[(4-(2-Methoxyphenyl)pyridin-2-yl)amino]benzenesulfonamide], for which the figures for the Kd on CDK7/CyclinH/MAT1, at CDK2/CyclinA and on CDK9/Cyclin K were greater than 10000 nM, less than 100 nM and less than 100 nM, respectively. The IC50 in assay [1] was in the range of 100 to 1000 nM.
For `COc1cc(F)ccc1-c1ccnc(Nc2cccc(NS(C)(=O)=O)c2)c1` [Compound J1, N-[3-((4-(4-Fluoro-2-methoxyphenyl)pyridin-2-yl)amino)phenyl]-methanesulfonamide], the Kd at CDK7/CyclinH/MAT1 is 1000 to 10000 nM; at CDK2/CyclinA it was less than 100 nM.
For `COc1cc(F)ccc1-c1ccnc(Nc2cccc(CS(=O)(=O)N(C)C)c2)c1` [Compound G3, 1-[3-((4-(4-Fluoro-2-methoxyphenyl)pyridin-2-yl)amino)phenyl]-N,N-dimethylmethanesulfonamide], the Kd was greater than 10000 nM on CDK7/CyclinH/MAT1 and 100 to 1000 nM at CDK2/CyclinA.
As for `COc1ccccc1-c1ccnc(Nc2ccc(S(N)(=O)=O)cc2)c1` [Compound E1, 4-[(4-(2-Methoxyphenyl)pyridin-2-yl)amino]benzenesulfonamide], the Kd on CDK7/CyclinH/MAT1 was greater than 10000 nM; on CDK2/CyclinA, less than 100 nM; on CDK9/Cyclin K, less than 100 nM. In assay [1], the IC50 lay within 1000 to 10000 nM.
Regarding `COc1ccccc1-c1ccnc(Nc2cccc(S(C)(=O)=O)c2)c1` [Compound F1, 4-(2-Methoxyphenyl)-N-(3-(methylsulfonyl)phenyl)pyridin-2-amine], the Kd was 100 to 1000 nM on CDK2/CyclinA and less than 100 nM at CDK9/Cyclin K. Moreover, the IC50 in assay [1] was 1000 to 10000 nM.
With `COc1ccccc1-c1ccnc(Nc2cccc([N+](=O)[O-])c2)c1` [Compound C1, 4-(2-Methoxyphenyl)-N-(3-nitrophenyl)pyridin-2-amine], on CDK9/Cyclin K, the Kd was in the range of 100 to 1000 nM. The half-maximal inhibitory concentration (IC50) in assay [1] was in the range of 1000 to 10000 nM.
In the case of `COc1cc(F)ccc1-c1ccnc(Nc2cccc(CS(N)(=O)=O)c2)c1` [Compound G1, [3-((4-(4-Fluoro-2-methoxyphenyl)pyridin-2-yl)amino)phenyl]-methanesulfonamide], the results for the Kd on CDK7/CyclinH/MAT1, at CDK2/CyclinA and on CDK9/Cyclin K were greater than 10000 nM, 100 to 1000 nM and less than 100 nM, respectively. Further, in assay [1], the IC50 was in the range of 100 to 1000 nM.
Consider `COc1cc(F)ccc1-c1ccnc(Nc2cccc(NC(C)=O)c2)c1` [Compound J2, N-[3-((4-(4-Fluoro-2-methoxyphenyl)pyridin-2-yl)amino)phenyl]-acetamide], for which the figures for the Kd at CDK7/CyclinH/MAT1 and at CDK2/CyclinA were greater than 10000 nM and 100 to 1000 nM, respectively.
In the case of `CCCNS(=O)(=O)Cc1cccc(Nc2cc(-c3ccc(F)cc3OC)ccn2)c1` [Compound K1, 1-[3-((4-(4-Fluoro-2-methoxyphenyl)pyridin-2-yl)amino)phenyl]-N-propylmethanesulfonamide], the Kd is greater than 10000 nM on CDK7/CyclinH/MAT1 and 100 to 1000 nM on CDK2/CyclinA.
